Experimental findings from patent US8742110B2, “Spiroxazolidinone compounds” (Merck Sharp & Dohme Corp., priority 2010, dated 2014) are described below.

Where a name gives a salt, the structure may show the parent alone.

Sequence of SSTR5 (P35346 whole entry): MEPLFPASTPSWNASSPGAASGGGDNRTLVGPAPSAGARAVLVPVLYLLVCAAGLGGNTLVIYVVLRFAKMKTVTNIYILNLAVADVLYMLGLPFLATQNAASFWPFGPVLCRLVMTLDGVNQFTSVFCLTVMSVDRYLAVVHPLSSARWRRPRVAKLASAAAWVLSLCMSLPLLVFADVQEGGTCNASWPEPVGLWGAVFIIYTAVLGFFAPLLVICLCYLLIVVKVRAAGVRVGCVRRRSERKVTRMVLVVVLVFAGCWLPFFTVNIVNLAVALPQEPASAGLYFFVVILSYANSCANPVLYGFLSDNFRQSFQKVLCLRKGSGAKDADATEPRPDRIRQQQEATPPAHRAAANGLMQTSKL

For this experiment, the target named is SSTR5 (Homo sapiens (Human), UniProt P35346). Put plainly: SSTR5 binding assay. The note with it: CHO-K1 membranes expressing cloned human SSTR5. Put shortly:
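Competition binding on membranes from CHO-K1 cells stably expressing cloned human receptor, using radiolabeled somatostatin in 50 mM Tris-HCl pH 7.8 with EGTA, MgCl2 and protease inhibitors. Unlabeled compounds tested from 0.01 nM to 10,000 nM.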
`CCOc1cc(CN2CCC3(CC2)CN(c2ccc(-c4nn[nH]n4)cc2)C(=O)O3)cc(OCC)c1-c1ccc(F)cc1` [Example 3-12, 8-[(2,6-Diethoxy-4′-fluorobiphenyl-4-yl)methyl]-3-[4-(2H-tetrazol-5-yl)phenyl]-1-oxa-3,8-diazaspiro[4.5]decan-2-one, TFA salt] returned an IC50 of 0.323 nM.
For `CCOc1cc(CN2CCC3(CC2)CN(c2ccc(O)nc2)C(=O)O3)cc(OCC)c1-c1ccc(F)cc1` [Example 3-13, 8-[(2,6-Diethoxy-4-fluorobiphenyl-4-yl)methyl]-3-(6-hydroxypyridin-3-yl)-1-oxa-3,8-diazaspiro[4.5]decan-2-one, TFA salt], the IC50 was 3.8 nM.
For `CCOc1cc(CN2CCC3(CC2)CN(c2cccc(C(=O)O)c2)C(=O)O3)cc(OCC)c1-c1ccc(F)cc1` [Example 3-14, 3-{8-[(2,6-Diethoxy-4′-fluorobiphenyl-4-yl)methyl]-2-oxo-1-oxa-3,8-diazaspiro[4.5]dec-3-yl}benzoic acid, TFA salt] the value was 9.15 nM; for `CCOc1cc(CN2CCC3(CC2)CN(c2ccc(C(=O)O)c(C(F)(F)F)c2)C(=O)O3)cc(OCC)c1-c1ccc(F)cc1` [Example 3-15, 4-{8-[(2,6-Diethoxy-4′-fluorobiphenyl-4-yl)methyl]-2-oxo-1-oxa-3,8-diazaspiro[4.5]dec-3-yl}-2-(trifluoromethyl)benzoic acid, TFA salt], 2.79 nM; for `CCOc1cc(CN2CCC3(CC2)CN(c2ccc(C(=O)O)cc2C)C(=O)O3)cc(OCC)c1-c1ccc(F)cc1` [Example 3-16, 4-{8-[(2,6-Diethoxy-4′-fluorobiphenyl-4-yl)methyl]-2-oxo-1-oxa-3,8-diazaspiro[4.5]dec-3-yl}-3-methylbenzoic acid, TFA salt], 1.18 nM.
For `CCOc1cc(CN2CCC3(CC2)CN(c2cc(C(=O)O)ccn2)C(=O)O3)cc(OCC)c1-c1ccc(F)cc1` [Example 3-17, 2-{8-[(2,6-Diethoxy-4′-fluorobiphenyl-4-yl)methyl]-2-oxo-1-oxa-3,8-diazaspiro[4.5]dec-3-yl}pyridine-4-carboxylic acid, TFA salt] the value was 2.21 nM.
The figure for `CCOc1cc(CN2CCC3(CC2)CN(c2ccc(C(=O)O)c(F)c2)C(=O)O3)cc(OCC)c1-c1ccc(F)cc1` [Example 3-18, 4-{8-[(2,6-Diethoxy-4′-fluorobiphenyl-4-yl)methyl]-2-oxo-1-oxa-3,8-diazaspiro[4.5]dec-3-yl}-2-fluorobenzoic acid, TFA salt] is 1.15 nM; for `CCOc1cc(CN2CCC3(CC2)CN(c2ccc(C(=O)O)cc2Cl)C(=O)O3)cc(OCC)c1-c1ccc(F)cc1` [Example 3-19, 3-Chloro-4-{8-[(2,6-diethoxy-4′-fluorobiphenyl-4-yl)methyl]-2-oxo-1-oxa-3,8-diazaspiro[4.5]dec-3-yl}benzoic acid, TFA salt] it is 0.359 nM.
As for `CCOc1cc(CN2CCC3(CC2)CN(c2ccc(C(=O)O)c(OC)c2)C(=O)O3)cc(OCC)c1-c1ccc(F)cc1` [Example 3-20, 4-{8-[(2,6-Diethoxy-4′-fluorobiphenyl-4-yl)methyl]-2-oxo-1-oxa-3,8-diazaspiro[4.5]dec-3-yl}-2-methoxybenzoic acid, TFA salt], the IC50 is 0.129 nM.
The figure for `CCOc1cc(CN2CCC3(CC2)CN(c2ccc(C(=O)O)cc2F)C(=O)O3)cc(OCC)c1-c1ccc(F)cc1` [Example 3-21, 4-{8-[(2,6-Diethoxy-4′-fluorobiphenyl-4-yl)methyl]-2-oxo-1-oxa-3,8-diazaspiro[4.5]dec-3-yl}-3-fluorobenzoic acid, TFA salt] is 0.437 nM.
The figure for `CCOc1ccc(-c2cc(F)c(F)cc2F)c(CN2CCC3(CC2)CN(c2ccc(C(=O)O)cc2)C(=O)O3)c1` [Example 4-1, 4-{8-[(4-Ethoxy-2′,4′,5′-trifluorobiphenyl-2-yl)methyl]-2-oxo-1-oxa-3,8-diazaspiro[4.5]dec-3-yl}benzoic acid, TFA salt] is 0.793 nM; for `CCOc1ccc(-c2ccc(F)c(F)c2F)c(CN2CCC3(CC2)CN(c2ccc(C(=O)O)cc2)C(=O)O3)n1` [Example 4-2, 4-(8-{[6-Ethoxy-3-(2,3,4-trifluorophenyl)pyridin-2-yl]methyl}-2-oxo-1-oxa-3,8-diazaspiro[4.5]dec-3-yl)benzoic acid, TFA salt] it is 13.2 nM; for `CCOc1ccc(-c2ccc(F)cc2F)c(CN2CCC3(CC2)CN(c2ccc(C(=O)O)cc2)C(=O)O3)c1` [Example 4-3, 4-{8-[(4-Ethoxy-2′,4′-difluorobiphenyl-2-yl)methyl]-2-oxo-1-oxa-3,8-diazaspiro[4.5]dec-3-yl}benzoic acid, TFA salt] it is 0.49 nM.
On to `CCOc1ccc(-c2ccc(F)c(F)c2)c(CN2CCC3(CC2)CN(c2ccc(C(=O)O)cc2)C(=O)O3)c1` [Example 4-4, 4-{8-[(4-Ethoxy-3′,4′-difluorobiphenyl-2-yl)methyl]-2-oxo-1-oxa-3,8-diazaspiro[4.5]dec-3-yl}benzoic acid, TFA salt], for which the IC50 was determined as 0.502 nM. The IC50 values of the last two molecules are within 1.5-fold of each other.
For the molecule `CCOc1ccc(-c2ccc(F)c(F)c2F)c(CN2CCC3(CC2)CN(c2ccc(C(=O)O)cc2)C(=O)O3)c1` [Example 4-5, 4-{8-[(4-Ethoxy-2′,3′,4′-trifluorobiphenyl-2-yl)methyl]-2-oxo-1-oxa-3,8-diazaspiro[4.5]dec-3-yl}benzoic acid, TFA salt], the IC50 was 0.556 nM.
In turn, `CC(C)Oc1ccc(-c2ccc(F)c(F)c2F)c(CN2CCC3(CC2)CN(c2ccc(C(=O)O)cc2)C(=O)O3)c1` [Example 4-6, 4-{8-[(4-(Prop-2-yloxy)-2′,3′,4′-trifluorobiphenyl-2-yl)methyl]-2-oxo-1-oxa-3,8-diazaspiro[4.5]dec-3-yl}benzoic acid, TFA salt] had an IC50 of 0.546 nM.
For `CCOc1cc(CN2CCC3(CC2)CN(c2ccc(C(=O)O)cc2)C(=O)O3)c(-c2ccc(F)c(F)c2F)cc1C` [Example 4-7, 4-{8-[(4-Ethoxy-2′,3′,4′-trifluoro-5-methylbiphenyl-2-yl)methyl]-2-oxo-1-oxa-3,8-diazaspiro[4.5]dec-3-yl}benzoic acid, TFA salt] the value was 0.409 nM.
The molecule `CCOc1cc(CN2CCC3(CC2)CN(c2ccc(C(=O)O)cc2C)C(=O)O3)c(-c2ccc(F)c(F)c2F)cc1C` [Example 4-8, 4-{8-[(4-Ethoxy-2′,3′,4′-trifluoro-5-methylbiphenyl-2-yl)methyl]-2-oxo-1-oxa-3,8-diazaspiro[4.5]dec-3-yl}-3-methylbenzoic acid, TFA salt] displayed an IC50 of 0.474 nM.
The figure for `O=C(O)c1ccc(N2CC3(CCN(Cc4cc(C(F)(F)F)ccc4-c4ccc(F)c(F)c4F)CC3)OC2=O)cc1` [Example 4-9, 4-(2-Oxo-8-{[2′,3′,4′-trifluoro-4-(trifluoromethyl)biphenyl-2-yl]methyl}-1-oxa-3,8-diazaspiro[4.5]dec-3-yl)benzoic acid, TFA salt] is 0.439 nM; for `O=C(O)c1ccc(N2CC3(CCN(Cc4cc(C(F)(F)F)ccc4-c4ccc(F)nc4)CC3)OC2=O)cc1` [Example 4-10, 4-{8-[2-(6-Fluoropyridin-3-yl)-5-(trifluoromethyl)benzyl]-2-oxo-1-oxa-3,8-diazaspiro[4.5]dec-3-yl}benzoic acid, TFA salt] it is 1.49 nM.
As to `CCOc1cc(CN2CCC3(CC2)CN(c2ccc(C(=O)O)cc2)C(=O)O3)c(-c2cc(F)c(F)cc2F)cc1C` [Example 4-11, 4-{8-[(4-Ethoxy-2′,4′,5′-trifluoro-5-methylbiphenyl-2-yl)methyl]-2-oxo-1-oxa-3,8-diazaspiro[4.5]dec-3-yl}benzoic acid, TFA salt], the half-inhibitory concentration (IC50) amounted to 0.152 nM.
For `CCOc1cc(CN2CCC3(CC2)CN(c2ccc(C(=O)O)c(C)c2)C(=O)O3)c(-c2ccc(F)c(F)c2F)cc1C` [Example 4-12, 4-{8-[(4-Ethoxy-2′,3′,4′-trifluoro-5-methylbiphenyl-2-yl)methyl]-2-oxo-1-oxa-3,8-diazaspiro[4.5]dec-3-yl}-2-methylbenzoic acid, TFA salt] the value was 0.188 nM; for `CCOc1ccc(-c2ccc(F)c(F)c2F)c(CN2CCC3(CC2)CN(c2ccc(C(=O)O)c(C)c2)C(=O)O3)c1` [Example 4-13, 4-{8-[(4-Ethoxy-2′,3′,4′-trifluorobiphenyl-2-yl)methyl]-2-oxo-1-oxa-3,8-diazaspiro[4.5]dec-3-yl}-2-methylbenzoic acid, TFA salt], 0.983 nM.
For `CCOc1cc(CN2CCC3(CC2)CN(c2ccc(C(=O)O)cc2)C(=O)O3)c(-c2ccc(F)nc2)cc1C` [Example 4-14, 4-{8-[5-Ethoxy-2-(6-fluoropyridin-3-yl)-4-methylbenzyl]-2-oxo-1-oxa-3,8-diazaspiro[4.5]dec-3-yl}benzoic acid, TFA salt] the value was 0.407 nM; for `O=C(O)c1ccc(N2CC3(CCN(Cc4cnc(-c5ccccc5)nc4-c4ccc(F)cc4)CC3)OC2=O)cc1` [Example 4-15, 4-(8-{[4-(4-Fluorophenyl)-2-phenylpyrimidin-5-yl]methyl}-2-oxo-1-oxa-3,8-diazaspiro[4.5]dec-3-yl)benzoic acid, TFA salt], 218 nM.
The figure for `CC(C)Oc1ccc(-c2cc(F)c(F)cc2F)c(CN2CCC3(CC2)CN(c2ccc(C(=O)O)cc2)C(=O)O3)c1` [Example 4-16, 4-(2-Oxo-8-{[2′,4′,5′-trifluoro-4-(propan-2-yloxy)biphenyl-2-yl]methyl}-1-oxa-3,8-diazaspiro[4.5]dec-3-yl)benzoic acid, TFA salt] is 0.272 nM.
Regarding `O=C(O)c1ccc(N2CC3(CCN(Cc4cc(OC(F)(F)F)ccc4-c4ccc(F)c(F)c4F)CC3)OC2=O)cc1` [Example 4-17, 4-(2-Oxo-8-{[2′,3′,4′-trifluoro-4-(trifluoromethoxy)biphenyl-2-yl]methyl}-1-oxa-3,8-diazaspiro[4.5]dec-3-yl)benzoic acid, TFA salt], the IC50 is 0.165 nM. This IC50 is about 1.6-fold lower than that of the molecule before.
In turn, `CCOc1cc(CN2CCC3(CC2)CN(c2ccc(C(=O)O)c(OC)c2)C(=O)O3)c(-c2ccc(F)c(F)c2F)cc1C` [Example 4-18, 4-{8-[(4-Ethoxy-2′,3′,4′-trifluoro-5-methylbiphenyl-2-yl)methyl]-2-oxo-1-oxa-3,8-diazaspiro[4.5]dec-3-yl}-2-methoxybenzoic acid, TFA salt] yielded an IC50 of 0.228 nM.

Broadly, the IC50 is the midpoint of a concentration-inhibition curve. Lower therefore signals greater potency.
